From ChEMBL document CHEMBL5346907, “Discovery of a novel oral type Ⅰ CDK8 inhibitor against acute myeloid leukemia” (Eur J Med Chem, 2023)

Tests used:
MV4-11 = test: Antiproliferative activity against human MV4-11 cells incubated for 48 hrs by CCK8 assay; format: functional
A-375 = test: Antiproliferative activity against human A-375 cells incubated for 48 hrs by CCK8 assay; format: functional
A549 = test: Antiproliferative activity against human A549 cells incubated for 48 hrs by CCK8 assay; format: functional
HCT-116 [1] = test: Antiproliferative activity against human HCT-116 cells incubated for 48 hrs by CCK8 assay; format: functional
[2] = biological target: Cyclin-Y/Cyclin-dependent kinase 16 (Homo sapiens) (UniProt Q00536+Q8ND76); test: Inhibition of CDK16/CyclinY (unknown origin) at 1 uM preincubated for 10 mins followed by substrate addition measured for 60 to 120 mins by HTRF assay relative to control; format: protein-complex assay; details: time 70-130 min
[3] = biological target: Cyclin-dependent kinase 13/Cyclin-K (Homo sapiens) (UniProt Q14004+O75909); test: Inhibition of CDK13/Cyclin K (unknown origin) at 1 uM preincubated for 10 mins followed by substrate addition measured for 60 to 120 mins by HTRF assay relative to control; format: protein-complex assay; details: time 70-130 min
[4] = biological target: Cyclin-dependent kinase 2/cyclin E1 (Homo sapiens) (UniProt P24864+P24941); test: Inhibition of CDK2/Cyclin E1 (unknown origin) at 1 uM preincubated for 10 mins followed by substrate addition measured for 60 to 120 mins by HTRF assay relative to control; format: protein-complex assay; details: time 70-130 min
[5] = biological target: CDK1/Cyclin E (Homo sapiens) (UniProt P06493+P24864); test: Inhibition of CDK1/Cyclin E1 (unknown origin) at 1 uM preincubated for 10 mins followed by substrate addition measured for 60 to 120 mins by HTRF assay relative to control; format: protein-complex assay; details: time 70-130 min
CDK1/Cyclin E (Homo sapiens), sequence (P06493 whole entry, looked up): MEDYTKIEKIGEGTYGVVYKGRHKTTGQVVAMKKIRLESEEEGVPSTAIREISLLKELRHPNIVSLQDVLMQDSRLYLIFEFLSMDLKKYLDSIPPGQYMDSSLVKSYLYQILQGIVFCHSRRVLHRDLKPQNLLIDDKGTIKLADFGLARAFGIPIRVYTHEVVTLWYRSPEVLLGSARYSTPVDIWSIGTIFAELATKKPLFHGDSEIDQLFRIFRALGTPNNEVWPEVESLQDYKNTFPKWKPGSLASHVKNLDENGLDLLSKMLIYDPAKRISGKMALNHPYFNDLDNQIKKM
CDK1/Cyclin E (Homo sapiens), sequence (P24864 whole entry, looked up): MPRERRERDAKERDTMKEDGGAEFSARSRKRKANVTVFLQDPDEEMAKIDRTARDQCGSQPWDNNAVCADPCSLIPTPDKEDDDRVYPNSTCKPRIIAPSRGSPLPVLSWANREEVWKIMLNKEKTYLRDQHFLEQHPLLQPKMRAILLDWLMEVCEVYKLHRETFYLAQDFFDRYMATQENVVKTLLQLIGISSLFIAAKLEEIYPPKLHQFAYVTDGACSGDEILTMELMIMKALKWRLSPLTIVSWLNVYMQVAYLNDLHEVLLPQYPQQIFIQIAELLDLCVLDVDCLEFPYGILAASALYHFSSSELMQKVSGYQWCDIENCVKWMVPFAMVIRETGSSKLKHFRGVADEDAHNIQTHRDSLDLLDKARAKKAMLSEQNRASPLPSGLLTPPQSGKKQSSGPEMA

[6] = biological target: CDK4/Cyclin D3 (Homo sapiens) (UniProt P11802+P30281); test: Inhibition of CDK4/Cyclin D3 (unknown origin) at 1 uM preincubated for 10 mins followed by substrate addition measured for 60 to 120 mins by HTRF assay relative to control; format: protein-complex assay; details: time 70-130 min
[7] = biological target: CDK6/cyclin D1 (Homo sapiens) (UniProt P24385+Q00534); test: Inhibition of CDK6/Cyclin D1 (unknown origin) at 1 uM preincubated for 10 mins followed by substrate addition measured for 60 to 120 mins by HTRF assay relative to control; format: protein-complex assay; details: time 70-130 min
CDK6/cyclin D1 = CDK6/cyclin D1 (Homo sapiens, UniProt Q00534); test: Inhibition of CDK6/Cyclin D1 (unknown origin) preincubated for 10 mins followed by substrate addition measured for 60 to 120 mins by HTRF assay; format: protein-complex assay
[8] = biological target: Tyrosine-protein kinase Fes/Fps (Homo sapiens) (UniProt P07332); test: Inhibition of FES (unknown origin) at 1 uM preincubated for 10 mins followed by substrate addition measured for 60 to 120 mins by HTRF assay relative to control; details: time 70-130 min
[9] = biological target: Insulin-like growth factor 1 receptor (Homo sapiens) (UniProt P08069); test: Inhibition of IGF1R (unknown origin) at 1 uM preincubated for 10 mins followed by substrate addition measured for 60 to 120 mins by HTRF assay relative to control; details: time 70-130 min
Insulin-like growth factor 1 receptor (Homo sapiens), sequence (P08069 31-736 limits assumed): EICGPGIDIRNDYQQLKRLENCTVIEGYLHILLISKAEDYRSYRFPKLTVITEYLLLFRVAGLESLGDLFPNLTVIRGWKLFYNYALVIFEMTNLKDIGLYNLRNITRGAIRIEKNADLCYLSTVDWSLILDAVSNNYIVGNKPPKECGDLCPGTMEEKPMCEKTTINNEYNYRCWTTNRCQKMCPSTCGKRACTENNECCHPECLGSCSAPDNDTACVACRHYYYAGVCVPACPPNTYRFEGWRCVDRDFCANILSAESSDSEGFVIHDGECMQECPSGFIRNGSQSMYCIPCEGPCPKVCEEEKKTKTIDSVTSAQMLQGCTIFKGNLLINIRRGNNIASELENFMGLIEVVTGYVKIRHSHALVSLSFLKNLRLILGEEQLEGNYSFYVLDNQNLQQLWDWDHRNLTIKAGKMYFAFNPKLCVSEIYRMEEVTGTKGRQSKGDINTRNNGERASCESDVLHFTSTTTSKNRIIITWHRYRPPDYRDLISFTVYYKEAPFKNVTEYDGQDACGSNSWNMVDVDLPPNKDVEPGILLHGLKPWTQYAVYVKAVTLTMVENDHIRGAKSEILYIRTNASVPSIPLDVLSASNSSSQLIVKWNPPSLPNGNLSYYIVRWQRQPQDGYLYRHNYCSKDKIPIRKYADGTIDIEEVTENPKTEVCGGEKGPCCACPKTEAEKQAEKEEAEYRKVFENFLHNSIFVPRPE
Insulin-like growth factor 1 receptor (Homo sapiens), sequence (P08069 741-1367 limits assumed): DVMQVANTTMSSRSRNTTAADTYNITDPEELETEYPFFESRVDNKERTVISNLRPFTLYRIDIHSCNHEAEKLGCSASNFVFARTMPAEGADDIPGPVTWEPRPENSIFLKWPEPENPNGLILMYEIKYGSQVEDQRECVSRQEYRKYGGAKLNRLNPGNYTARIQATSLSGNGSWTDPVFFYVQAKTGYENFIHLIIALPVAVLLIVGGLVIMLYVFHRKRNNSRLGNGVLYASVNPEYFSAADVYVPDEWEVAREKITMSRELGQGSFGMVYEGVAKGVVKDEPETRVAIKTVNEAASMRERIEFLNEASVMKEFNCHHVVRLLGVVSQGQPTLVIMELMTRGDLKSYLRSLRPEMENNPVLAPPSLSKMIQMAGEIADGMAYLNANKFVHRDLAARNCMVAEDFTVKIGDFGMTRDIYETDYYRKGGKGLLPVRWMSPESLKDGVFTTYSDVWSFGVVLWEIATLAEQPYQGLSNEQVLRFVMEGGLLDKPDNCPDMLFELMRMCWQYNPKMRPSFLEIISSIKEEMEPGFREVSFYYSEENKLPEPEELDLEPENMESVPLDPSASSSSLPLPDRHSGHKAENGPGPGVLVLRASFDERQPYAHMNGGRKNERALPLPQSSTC

[10] = biological target: Insulin receptor (Homo sapiens) (UniProt P06213); test: Inhibition of INSR (unknown origin) at 1 uM preincubated for 10 mins followed by substrate addition measured for 60 to 120 mins by HTRF assay relative to control; details: time 70-130 min
[11] = biological target: Tyrosine-protein kinase SYK (Homo sapiens) (UniProt P43405); test: Inhibition of SYK (unknown origin) at 1 uM preincubated for 10 mins followed by substrate addition measured for 60 to 120 mins by HTRF assay relative to control; details: time 70-130 min
[12] = biological target: Ephrin type-A receptor 5 (Homo sapiens) (UniProt P54756); test: Inhibition of EPHA5 (unknown origin) at 1 uM preincubated for 10 mins followed by substrate addition measured for 60 to 120 mins by HTRF assay relative to control; details: time 70-130 min
Ephrin type-A receptor 5 (Homo sapiens), sequence (P54756 whole entry): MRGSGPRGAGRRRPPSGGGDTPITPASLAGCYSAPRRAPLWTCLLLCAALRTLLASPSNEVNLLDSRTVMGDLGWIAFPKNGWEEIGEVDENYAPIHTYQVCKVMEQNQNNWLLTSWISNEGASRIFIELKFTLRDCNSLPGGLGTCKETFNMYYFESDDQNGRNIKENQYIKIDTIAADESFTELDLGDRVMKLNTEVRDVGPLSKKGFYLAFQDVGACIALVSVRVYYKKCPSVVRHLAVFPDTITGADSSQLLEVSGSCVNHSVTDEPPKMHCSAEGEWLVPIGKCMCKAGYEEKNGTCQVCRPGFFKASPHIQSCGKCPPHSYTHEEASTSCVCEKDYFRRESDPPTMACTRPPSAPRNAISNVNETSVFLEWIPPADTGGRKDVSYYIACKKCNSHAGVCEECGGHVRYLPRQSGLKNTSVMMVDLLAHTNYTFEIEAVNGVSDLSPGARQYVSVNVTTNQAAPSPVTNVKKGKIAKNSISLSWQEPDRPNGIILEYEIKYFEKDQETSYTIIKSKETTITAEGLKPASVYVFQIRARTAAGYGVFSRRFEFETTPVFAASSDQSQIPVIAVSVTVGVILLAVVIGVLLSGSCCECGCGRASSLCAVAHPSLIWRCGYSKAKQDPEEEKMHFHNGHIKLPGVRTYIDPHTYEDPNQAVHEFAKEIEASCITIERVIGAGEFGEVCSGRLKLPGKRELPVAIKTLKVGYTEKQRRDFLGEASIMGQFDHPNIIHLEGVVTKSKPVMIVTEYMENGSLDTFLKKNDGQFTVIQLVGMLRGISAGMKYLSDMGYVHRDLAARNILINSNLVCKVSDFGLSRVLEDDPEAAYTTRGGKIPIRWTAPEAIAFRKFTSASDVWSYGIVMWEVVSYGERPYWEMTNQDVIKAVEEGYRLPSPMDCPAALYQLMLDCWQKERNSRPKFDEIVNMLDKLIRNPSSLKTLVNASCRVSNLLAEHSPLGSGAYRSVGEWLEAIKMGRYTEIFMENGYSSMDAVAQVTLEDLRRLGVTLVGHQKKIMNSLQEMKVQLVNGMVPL

[13] = biological target: Tyrosine-protein kinase ZAP-70 (Homo sapiens) (UniProt P43403); test: Inhibition of ZAP70 (unknown origin) at 1 uM preincubated for 10 mins followed by substrate addition measured for 60 to 120 mins by HTRF assay relative to control; details: time 70-130 min
Tyrosine-protein kinase ZAP-70 (Homo sapiens), sequence (P43403 whole entry): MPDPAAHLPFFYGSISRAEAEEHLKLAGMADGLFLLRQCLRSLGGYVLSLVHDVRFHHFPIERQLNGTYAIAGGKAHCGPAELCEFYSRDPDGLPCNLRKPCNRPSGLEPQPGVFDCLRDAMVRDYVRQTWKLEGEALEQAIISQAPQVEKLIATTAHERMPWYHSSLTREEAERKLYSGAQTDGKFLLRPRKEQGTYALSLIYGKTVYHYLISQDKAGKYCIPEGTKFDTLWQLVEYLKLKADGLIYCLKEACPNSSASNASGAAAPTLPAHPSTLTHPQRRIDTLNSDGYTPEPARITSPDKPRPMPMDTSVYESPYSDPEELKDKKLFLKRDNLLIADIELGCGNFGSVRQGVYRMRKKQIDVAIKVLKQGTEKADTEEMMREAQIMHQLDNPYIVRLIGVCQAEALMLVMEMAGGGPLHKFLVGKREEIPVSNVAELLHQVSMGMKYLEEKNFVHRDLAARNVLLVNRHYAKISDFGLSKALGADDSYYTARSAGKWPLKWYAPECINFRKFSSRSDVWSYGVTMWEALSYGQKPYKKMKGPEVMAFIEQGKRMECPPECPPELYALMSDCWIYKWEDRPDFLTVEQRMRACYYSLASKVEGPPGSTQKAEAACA

[14] = biological target: Ephrin type-A receptor 3 (Homo sapiens) (UniProt P29320); test: Inhibition of EPHA3 (unknown origin) at 1 uM preincubated for 10 mins followed by substrate addition measured for 60 to 120 mins by HTRF assay relative to control; details: time 70-130 min
[15] = biological target: Tyrosine-protein kinase Tec (Homo sapiens) (UniProt P42680); test: Inhibition of TEC (unknown origin) at 1 uM preincubated for 10 mins followed by substrate addition measured for 60 to 120 mins by HTRF assay relative to control; details: time 70-130 min
[16] = biological target: Mast/stem cell growth factor receptor Kit (Homo sapiens) (UniProt P10721); test: Inhibition of KIT (unknown origin) at 1 uM preincubated for 10 mins followed by substrate addition measured for 60 to 120 mins by HTRF assay relative to control; details: time 70-130 min
[17] = biological target: Tyrosine-protein kinase CSK (Homo sapiens) (UniProt P41240); test: Inhibition of CSK (unknown origin) at 1 uM preincubated for 10 mins followed by substrate addition measured for 60 to 120 mins by HTRF assay relative to control; details: time 70-130 min
Tyrosine-protein kinase CSK (Homo sapiens), sequence (P41240 2-450 limits assumed): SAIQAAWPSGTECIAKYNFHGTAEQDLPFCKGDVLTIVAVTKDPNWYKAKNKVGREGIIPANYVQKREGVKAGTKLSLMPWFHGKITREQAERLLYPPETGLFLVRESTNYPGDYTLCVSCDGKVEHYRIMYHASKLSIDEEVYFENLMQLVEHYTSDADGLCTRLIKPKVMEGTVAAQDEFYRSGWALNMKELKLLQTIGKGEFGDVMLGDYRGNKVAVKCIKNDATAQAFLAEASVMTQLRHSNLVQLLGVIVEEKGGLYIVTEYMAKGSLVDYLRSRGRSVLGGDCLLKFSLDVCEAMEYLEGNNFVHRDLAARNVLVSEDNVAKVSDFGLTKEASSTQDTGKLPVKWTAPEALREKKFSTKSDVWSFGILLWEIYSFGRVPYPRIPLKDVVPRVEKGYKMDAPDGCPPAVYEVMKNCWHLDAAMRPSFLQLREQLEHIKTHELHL

[18] = biological target: Ephrin type-A receptor 7 (Homo sapiens) (UniProt Q15375); test: Inhibition of EPHA7 (unknown origin) at 1 uM preincubated for 10 mins followed by substrate addition measured for 60 to 120 mins by HTRF assay relative to control; details: time 70-130 min
[19] = biological target: Tyrosine-protein kinase Mer (Homo sapiens) (UniProt Q12866); test: Inhibition of MER (unknown origin) at 1 uM preincubated for 10 mins followed by substrate addition measured for 60 to 120 mins by HTRF assay relative to control; details: time 70-130 min
[20] = biological target: Discoidin domain-containing receptor 2 (Homo sapiens) (UniProt Q16832); test: Inhibition of DDR2 (unknown origin) at 1 uM preincubated for 10 mins followed by substrate addition measured for 60 to 120 mins by HTRF assay relative to control; details: time 70-130 min
Discoidin domain-containing receptor 2 (Homo sapiens), sequence (Q16832 whole entry, the tested form may be a part): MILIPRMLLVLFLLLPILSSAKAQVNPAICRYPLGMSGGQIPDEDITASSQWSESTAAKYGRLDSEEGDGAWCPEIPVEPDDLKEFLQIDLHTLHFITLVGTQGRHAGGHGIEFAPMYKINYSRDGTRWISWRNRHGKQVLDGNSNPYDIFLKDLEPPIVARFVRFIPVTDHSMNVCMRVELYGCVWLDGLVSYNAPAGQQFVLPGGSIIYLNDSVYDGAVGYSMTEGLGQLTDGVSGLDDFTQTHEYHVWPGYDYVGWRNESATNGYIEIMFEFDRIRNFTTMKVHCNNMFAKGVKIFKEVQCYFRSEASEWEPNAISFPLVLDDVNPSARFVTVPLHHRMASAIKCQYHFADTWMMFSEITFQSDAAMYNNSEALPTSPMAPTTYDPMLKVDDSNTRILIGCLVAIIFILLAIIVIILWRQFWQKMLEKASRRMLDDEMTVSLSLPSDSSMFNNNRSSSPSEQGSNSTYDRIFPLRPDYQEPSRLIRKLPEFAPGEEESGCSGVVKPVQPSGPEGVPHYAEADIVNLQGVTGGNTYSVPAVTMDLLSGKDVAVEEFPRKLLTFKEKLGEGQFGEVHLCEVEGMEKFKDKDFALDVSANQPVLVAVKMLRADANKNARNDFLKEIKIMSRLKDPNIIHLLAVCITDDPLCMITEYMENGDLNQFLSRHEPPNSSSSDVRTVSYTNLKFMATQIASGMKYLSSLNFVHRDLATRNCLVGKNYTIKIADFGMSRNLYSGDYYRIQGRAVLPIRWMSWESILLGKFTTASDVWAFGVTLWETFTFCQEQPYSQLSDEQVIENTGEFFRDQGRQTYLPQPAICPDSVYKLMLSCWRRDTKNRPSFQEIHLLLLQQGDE

HCT-116 [21] = test: Downregulation of STAT5 S726 phosphorylation in human HCT-116 cells incubated for 12 hrs by Western blot analysis; format: functional, cell-based; details: dose 1-10 µM
HL-60 [22] = test: Induction of apoptosis in human HL-60 cells assessed as viable cells at 5 uM incubated for 48 hrs by annexin V-FITC/PI staining based flow cytometry (reference value: 96.5 %); format: functional; details: read-out: Activity
HL-60 [23] = test: Induction of apoptosis in human HL-60 cells assessed as early apoptosis cells at 5 uM incubated for 48 hrs by annexin V-FITC/PI staining based flow cytometry (reference value: 2.08 %); format: functional
HL-60 [24] = test: Induction of apoptosis in human HL-60 cells assessed as necrotic cells at 10 uM incubated for 48 hrs by annexin V-FITC/PI staining based flow cytometry (reference value: 0.26 %); format: functional
[25] = AUC (0 to infinity) in Sprague-Dawley rat at 10 mg/kg, po; format: ADME, organism-based; set-up: dose 10 mg/kg, route po; details: in vivo
[26] = MRT in Sprague-Dawley rat at 2 mg/kg, iv; format: ADME, organism-based; details: in vivo
C1498 = test: Downregulation of STAT5 S726 expression in mouse C1498 cells allografted in AML Balb/C mouse model administered orally daily for 15 days measured after 3 weeks by Western blot analysis; format: functional, cell-based; details: dose 40-80 mg/kg, route po, time 15.0 day

## NC(=O)c1cccc(-c2cnc3[nH]ccc3c2)c1
MV4-11
  GI50: 4.61 µM
A-375
  GI50: > 50 µM
A549
  GI50: > 50 µM
HCT-116 [1]
  GI50: > 50 µM
[2]
  inhibition: 16.6%
[3]
  inhibition: 9.63%
[4]
  inhibition: 9.01%
[5]
  inhibition: 8.89%
[6]
  inhibition: 7.02%
[7]
  inhibition: 0.37%
CDK6/cyclin D1
  IC50: 0.594 µM
[8]
  inhibition: 26.7%
[9]
  inhibition: 7.77%
[10]
  inhibition: 7.74%
[11]
  inhibition: 4.7%
[12]
  inhibition: 1%
[13]
  inhibition: 0%
[14]
  inhibition: 0%
[15]
  inhibition: 0%
[16]
  inhibition: 0%
[17]
  inhibition: 0%
[18]
  inhibition: 0%
[19]
  inhibition: 0%
[20]
  inhibition: 0%
HCT-116 [21]
  Activity: Dose-Dependent Effect
HL-60 [22]
  viability at 5 µM: 9.73%
HL-60 [23]
  Activity: 22.4%
HL-60 [24]
  Activity: 1.79%
[25]
  AUC(0-inf): 434 ng·h/mL
[26]
  MRT: 1.5 h
C1498
  Activity: Dose-Dependent Effect
